Assay in all cases: competitive isoTOP-ABPP
For assay [1], the target named is T1, TPD52L2 Tumor protein D54 (Homo sapiens, UniProt O43399).
T1 construct: isoTOP-ABPP experiments performed in cell lysates (in vitro); endogenous in cells; host or cells: MDA-MB-231 soluble lysate
The assay is classed as binding. Details: key to isoTOP-ABPP reactivity ratio at lysine O43399_K90: R = MS1 peak area ratio, DMSO (heavy) / compound-treated (light). The settings on record: 50 uM, 231 sol, in vitro; for R value (DMSO/fragment) for probe 1 labeling: O43399_K90. The procedure:
(§1) In vitro covalent fragment treatment for isoTOP-ABPP. All compounds were made up as solutions in DMSO (100×) and were used at a final concentration of 50 μM for activated esters and 100 μM for guanidinylating agents. For each profiling sample, 0.5 ml of lysate was treated with 5 μl of the 100× compound stock solution or 5 μl of DMSO. Samples were treated with activated esters for
(§2) STP-alkyne labeling and click chemistry. For concentration-dependent reactivity measurements by isoTOP-ABPP, 0.5 ml proteome aliquots were treated at ambient temperature with 1 mM STP-alkyne 1 (5 μl of 100 mM stock in DMSO) and 0.1 mM STP alkyne 1 (5 μl of 10 mM stock in DMSO), respectively. For competitive isoTOP-ABPP, after in vitro fragment treatment (detailed above), the samples were labeled for 1 h at ambient temperature with 0.1 mM STP-alkyne 1 (5 μl of 10 mM stock in DMSO). Samples were conjugated by copper-mediated azide-alkyne cycloaddition (CuAAC) to either the light (1 mM STP-alkyne or fragment treated) or heavy (0.1 mM STP-alkyne or DMSO treated) TEV tags (10 μl of 5 mM stocks in DMSO, final concentration=100 μM) using tris(2-carboxyethyl)phosphine hydrochloride
(§3) R value calculation and processing. The ratios of light and heavy MS1 peaks for each unique peptide were quantified with a CIMAGE software using default parameters (3 MS1 acquisitions per peak and signal to noise threshold set to 2.5). For reactivity measurements by isoTOP-ABPP, the R value was calculated from the ratio of MS1 peak areas, comparing the 1 mM STP alkyne sample (light TEV tag) with the 0.1 mM STP alkyne sample (heavy TEV tag). For competitive isoTOP-ABPP, the R value was calculated from the ratio of MS1 peak areas, comparing the DMSO treated sample (heavy TEV tag) with the compound treated sample (light TEV tag). […] Ratios for unique peptide entries are calculated for each experiment; overlapping peptides with the same modified lysine (for example, different charge states, MudPIT chromatographic steps or tryptic termini) are grouped together and the median ratio is reported as the final ratio (R). The peptide ratios reported by CIMAGE were further filtered to ensure the removal or correction of low-quality ratios in each individual data set. The quality filters applied were the following: removal of half tryptic peptides; for ratios with high standard deviations from the median (90% of the median or above) the lowest ratio was taken instead of the median; removal of peptides with R=20 and only a single MS2 event triggered during the elution of the parent ion; manual annotation of all the peptides with ratios of 20, removing any peptides with low quality elution profiles that remained after the previous curation steps (only done for competitive isoTOP-ABPP).
(§4) Cross-data processing for fragment screening. For compound treated samples, biological replicates of the same condition were averaged, if the standard deviation was below 60% of the mean; otherwise, for lysines with at least one R value <4 for a particular compound, the lowest value of the ratio set was taken. For lysines, where all R values for a particular compound were ≥4, the average was reported. For peptides containing several possible modified lysines, the lysine with the highest number of quantification events was used for analysis and the remaining, redundant peptides were reported as alternative modification sites. Peptides included in the aggregate dataset (those used for further bioinformatics and statistical analyses) were required to have been quantified in 2 experiments for competitive isoTOP-ABPP. Lysines were categorized as liganded, if they had at least one ratio R≥4 (hit fragments). For liganded lysines with R=20 for all liganding events, lysines were required to have been quantified with R=20 in two separate experiments and were further required to have been quantified with R<20 in one additional experiment.

The target of assay [2] is T2, ADK Adenosine kinase (Homo sapiens, UniProt P55263).
T2 construct: isoTOP-ABPP experiments performed in cell lysates (in vitro); endogenous in cells; host or cells: soluble proteome of human cancer cell lines (MDA-MB-231, Ramos, Jurkat)
It counts as binding. The conditions noted are these: 50 uM, 231 sol, in vitro; for R value (DMSO/fragment) for probe 1 labeling: P55263_K88. Details: key to isoTOP-ABPP reactivity ratio at lysine P55263_K88: R = MS1 peak area ratio, DMSO (heavy) / compound-treated (light). The procedure:
as §1, §2, §3, §4

For assay [3], the target named is T3, ABCE1 ATP-binding cassette sub-family E member 1 (Homo sapiens, UniProt P61221).
T3 construct: isoTOP-ABPP experiments performed in cell lysates (in vitro); endogenous in cells; host or cells: soluble proteome of human cancer cell lines (MDA-MB-231, Ramos, Jurkat)
The settings on record: 50 uM, 231 sol, in vitro. On the procedure:
as §1, §2, §3, §4

The target in assay [4] is T4, PFKP 6-phosphofructokinase type C (Homo sapiens, UniProt Q01813).
T4 construct: isoTOP-ABPP experiments performed in cell lysates (in vitro); endogenous in cells
T4 sequence (Q01813 1-784): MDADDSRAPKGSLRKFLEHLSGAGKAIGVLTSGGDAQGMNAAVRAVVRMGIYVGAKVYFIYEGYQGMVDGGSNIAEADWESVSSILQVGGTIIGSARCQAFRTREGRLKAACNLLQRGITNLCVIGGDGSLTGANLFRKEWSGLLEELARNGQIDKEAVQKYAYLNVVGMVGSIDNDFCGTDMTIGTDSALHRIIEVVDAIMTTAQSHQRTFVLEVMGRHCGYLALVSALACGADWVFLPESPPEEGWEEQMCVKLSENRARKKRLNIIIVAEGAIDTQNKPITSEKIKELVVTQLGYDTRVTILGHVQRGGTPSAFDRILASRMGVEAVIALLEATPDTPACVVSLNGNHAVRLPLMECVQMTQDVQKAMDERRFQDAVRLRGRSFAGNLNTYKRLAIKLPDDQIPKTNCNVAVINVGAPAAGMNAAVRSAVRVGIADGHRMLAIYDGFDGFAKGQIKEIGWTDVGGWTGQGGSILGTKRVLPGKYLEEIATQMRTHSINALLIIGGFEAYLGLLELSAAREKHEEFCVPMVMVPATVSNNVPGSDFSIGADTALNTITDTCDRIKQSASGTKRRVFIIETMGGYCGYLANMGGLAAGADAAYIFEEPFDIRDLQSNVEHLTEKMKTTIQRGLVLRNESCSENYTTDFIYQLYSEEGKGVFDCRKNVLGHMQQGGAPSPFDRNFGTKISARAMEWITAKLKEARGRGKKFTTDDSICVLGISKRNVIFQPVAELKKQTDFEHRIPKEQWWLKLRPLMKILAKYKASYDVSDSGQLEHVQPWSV
It counts as binding. The conditions noted are these: for R value (DMSO/fragment) for probe 1 labeling: Q01813_K688; for R value (DMSO/fragment) for probe 1 labeling / isoTOP-ABPP reactivity ratio at lysine Q01813_K688: 50 uM, 231 sol, in vitro. Further details: key to isoTOP-ABPP reactivity ratio at lysine Q01813_K688: R = MS1 peak area ratio, DMSO (heavy) / compound-treated (light). The procedure: as §1, §2, §3, §4

T1 sequence (O43399 whole entry): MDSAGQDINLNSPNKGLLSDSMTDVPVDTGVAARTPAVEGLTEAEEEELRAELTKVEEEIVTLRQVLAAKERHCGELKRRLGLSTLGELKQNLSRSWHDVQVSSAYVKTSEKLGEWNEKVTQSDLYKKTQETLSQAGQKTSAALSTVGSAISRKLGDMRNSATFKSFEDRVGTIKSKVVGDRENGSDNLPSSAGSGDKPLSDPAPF
T2 sequence (P55263 whole entry): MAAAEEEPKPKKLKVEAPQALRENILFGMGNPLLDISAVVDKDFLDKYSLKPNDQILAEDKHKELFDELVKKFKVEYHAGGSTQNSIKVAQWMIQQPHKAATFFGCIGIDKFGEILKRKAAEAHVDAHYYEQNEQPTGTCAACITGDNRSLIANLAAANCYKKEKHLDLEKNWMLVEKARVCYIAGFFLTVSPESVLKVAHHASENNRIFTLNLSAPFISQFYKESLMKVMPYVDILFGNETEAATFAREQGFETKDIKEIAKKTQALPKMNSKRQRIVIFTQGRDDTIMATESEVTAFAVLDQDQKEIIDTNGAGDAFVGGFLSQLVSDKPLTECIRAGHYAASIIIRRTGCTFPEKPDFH

With `O=C(CCc1cn(-c2ccccc2)nc1-c1ccccc1)Oc1c(F)c(F)c(F)c(F)c1F` [fragment 19, Pentafluorophenyl 3-(1,3-diphenyl-1H-pyrazol-4-yl)propanoate], the “R value (DMSO/fragment) for probe 1 labeling” value (shortened to “R value (DMSO/fragment)”) is on record as 2.6 in assay [1]; 0.8 in assay [2]; 0.9 in assay [3] (P61221_K191); 1.1 in assay [3] (P61221_K478); 1.5 in assay [4].

On to `O=C(Oc1c(F)c(F)c(F)c(F)c1F)C(c1ccccc1)c1ccccc1` [fragment 20, Pentafluorophenyl 2,2-diphenylacetate], for which the “R value (DMSO/fragment)” value is recorded as 1.5 in assay [1]; 0.8 in assay [2]; 0.9 in assay [3] (P61221_K191); 1.2 in assay [3] (P61221_K478); 20.0 in assay [4]. For the same molecule, the “blockade of probe 1 labeling of K688” value in assay [4] (PFKP K688) is “completely blocked”.

As for `O=C(Oc1c(F)c(F)c(F)c(F)c1F)c1cc(C(F)(F)F)cc(C(F)(F)F)c1` [fragment 21, Pentafluorophenyl 3,5-bis(trifluoromethyl)benzoate], the “R value (DMSO/fragment)” value was 2.0 in assay [1], 0.8 in assay [2], 1.0 in assay [3] (P61221_K191) and 1.1 in assay [4].

As for `Cn1cc(CC(=O)Oc2c(F)c(F)c(F)c(F)c2F)c2ccccc21` [fragment 22, Pentafluorophenyl 2-(1-methyl-1H-indol-3-yl)acetate], the “R value (DMSO/fragment)” value in assay [1] came out at 3.6; in assay [2] it was 1.0; in assay [3] (P61221_K191), 1.5; in assay [3] (P61221_K478), 1.6; in assay [4], 2.0.

For the molecule `COc1cc(CCC(=O)Oc2c(F)c(F)c(F)c(F)c2F)cc(OC)c1OC` [fragment 23, Pentafluorophenyl 3-(3,4,5-trimethoxyphenyl)propanoate], the “R value (DMSO/fragment)” value in assay [1] was determined as 1.5; in assay [2], 0.7; in assay [3] (P61221_K191), 1.3; in assay [3] (P61221_K478), 1.5; in assay [4], 2.1.

Take `O=C(Oc1c(F)c(F)c(F)c(F)c1F)C1CCN(C(=O)OCc2ccccc2)CC1` [fragment 24, 1-Benzyl 4-(pentafluorophenyl) piperidine-1,4-dicarboxylate]: in assay [1], the “isoTOP-ABPP reactivity ratio at lysine O43399_K90” value was 1.9. Also, the “isoTOP-ABPP reactivity ratio at lysine P55263_K88” value in assay [2] is 1.0. For the same molecule, in assay [3], the “isoTOP-ABPP reactivity ratio at lysine P61221_K478” value amounted to 1.4. Further, in assay [4], the “isoTOP-ABPP reactivity ratio at lysine Q01813_K688” value was found to be 2.5.

As to `O=C(Oc1c(F)c(F)c(F)c(F)c1F)c1ccc2ccccc2n1` [fragment 25, Pentafluorophenyl quinoline-2-carboxylate], the “isoTOP-ABPP reactivity ratio at lysine O43399_K90” value in assay [1] was 1.5. For the same molecule, in assay [2], the “isoTOP-ABPP reactivity ratio at lysine P55263_K88” value was 0.8. Also, in assay [3], the “isoTOP-ABPP reactivity ratio at lysine P61221_K191” value is 1.7 and the “isoTOP-ABPP reactivity ratio at lysine P61221_K478” value is reported as 1.5. Also, the “isoTOP-ABPP reactivity ratio at lysine Q01813_K688” value in assay [4] amounted to 15.6.

For `O=C(CCc1coc2cc(F)ccc2c1=O)Oc1c(F)c(F)c(F)c(F)c1F` [fragment 26, Pentafluorophenyl 3-(7-fluoro-4-oxo-4H-chromen-3-yl)propanoate], in assay [1], the “isoTOP-ABPP reactivity ratio at lysine O43399_K90” value worked out at 1.3. Moreover, in assay [2], the “isoTOP-ABPP reactivity ratio at lysine P55263_K88” value was 0.9. In addition, in assay [3], the “isoTOP-ABPP reactivity ratio at lysine P61221_K191” value is listed as 1.4 and the “isoTOP-ABPP reactivity ratio at lysine P61221_K478” value is on record as 1.3. For the same molecule, the “isoTOP-ABPP reactivity ratio at lysine Q01813_K688” value in assay [4] is 6.4.

`O=C(CN1C(=O)c2ccccc2C1=O)Oc1c(F)c(F)c(F)c(F)c1F` [fragment 27, Pentafluorophenyl 2-(1,3-dioxoisoindolin-2-yl)acetate]: the “isoTOP-ABPP reactivity ratio at lysine O43399_K90” value in assay [1] stood at 1.4. The “isoTOP-ABPP reactivity ratio at lysine P55263_K88” value in assay [2] amounted to 0.8. Besides, in assay [3], the “isoTOP-ABPP reactivity ratio at lysine P61221_K478” value is 2.1. Moreover, the “isoTOP-ABPP reactivity ratio at lysine Q01813_K688” value in assay [4] was determined as 20.0.

As for `CCn1cc(C(=O)Oc2c(F)c(F)c(F)c(F)c2F)c(=O)c2ccc(C)nc21` [fragment 28, Pentafluorophenyl 1-ethyl-7-methyl-4-oxo-1,4-dihydro-1,8-naphthyridine-3-carboxylate], the “isoTOP-ABPP reactivity ratio at lysine O43399_K90” value in assay [1] was 1.1. For the same molecule, in assay [2], the “isoTOP-ABPP reactivity ratio at lysine P55263_K88” value was found to be 0.8. The “isoTOP-ABPP reactivity ratio at lysine P61221_K478” value in assay [3] amounted to 1.0. The “isoTOP-ABPP reactivity ratio at lysine Q01813_K688” value in assay [4] was found to be 1.3.

Take `O=C(CCc1cn(-c2ccccc2)nc1-c1ccccc1)Oc1ccc([N+](=O)[O-])cc1[N+](=O)[O-]` [fragment 29, 2,4-Dinitrophenyl 3-(1,3-diphenyl-1H-pyrazol-4-yl)propanoate]: in assay [1], the “isoTOP-ABPP reactivity ratio at lysine O43399_K90” value was 3.1. In addition, the “isoTOP-ABPP reactivity ratio at lysine P55263_K88” value in assay [2] amounted to 1.0. Further, in assay [3], the “isoTOP-ABPP reactivity ratio at lysine P61221_K191” value turned out to be 1.0 and the “isoTOP-ABPP reactivity ratio at lysine P61221_K478” value is reported as 1.2. In assay [4], the “isoTOP-ABPP reactivity ratio at lysine Q01813_K688” value is reported as 12.8.

Take `O=C(Oc1ccc([N+](=O)[O-])cc1[N+](=O)[O-])C(c1ccccc1)c1ccccc1` [fragment 30, 2,4-Dinitrophenyl 2,2-diphenylacetate]: the “isoTOP-ABPP reactivity ratio at lysine O43399_K90” value in assay [1] came out at 5.5. Besides, the “isoTOP-ABPP reactivity ratio at lysine P55263_K88” value in assay [2] was 0.8. Further, in assay [3], the “isoTOP-ABPP reactivity ratio at lysine P61221_K191” value came out at 1.1 and the “isoTOP-ABPP reactivity ratio at lysine P61221_K478” value was 1.1. For the same molecule, the “isoTOP-ABPP reactivity ratio at lysine Q01813_K688” value in assay [4] is on record as 20.0.

For the origin of these results see US20210255193A1, “LYSINE REACTIVE PROBES AND USES THEREOF” (The Scripps Research Institute, priority 2017, published 2021).
